# Where two headings read alike, the source gives them in different places.
# Legend:
# [1] = tested on: Aeromonas liquefaciens; assay: In vitro activity against fish bacterial pathogens, tube dilution (Experiment 13); details: Aeromonas hydrophila, read-out: minimum inhibitory concentration (MIC), Aeromonas liquetaciens
# [2] = tested on: Salmonella choleraesuis; assay: In vivo activity against Salmonella choleraesuis in pigs (Experiment 14)
# Method: The in vivo activity of compound 1 against Salmonella choleraesuis was determined in the following manner.
# Twenty-four healthy feeder pigs were purchased from a local farm and brought to the research facility where they were weighed individually and identified by ear tag. Four groups of six pigs each were formed so that the average pig weight per group was similar.
# Two groups of pigs were given compound 1 at a level of 50 g./ton in the feed. The remaining two groups of pigs were fed the same basal ration without compound 1. Twenty-four hours after initiation of the compound 1 feed treatment, all four groups were challenged orally using 10 ml. of a broth culture of Salmonella choleraesuis.
# The pigs were weighed weekly throughout the duration of the experiment and on the 28th day postsalmonella challenge, each surviving pig was killed and the salmonella-caused lesions were recorded. Chart 14, which follows, contains a summary of the results from the trial.
# [3] = tested on: Treponema hyodysenteriae; assay: In vitro activity against Treponema hyodysenteriae (Experiment 8); format: cell-based; details: Brachyspira hyodysenteriae; repeat test, doubling dilutions 100 to 0.048 mcg./ml.; read-out: minimum inhibitory concentration (MIC)
# Method: A number of representative compounds, namely, 1, 5, 6, 7, 12, 13D, 14, and 18, were tested for their in vitro activity against Treponema hyodysenteriae. The treponema were propagated on blood agar plates. Each plate which was prepared contained 20 ml. of trypticase soy agar (Baltimore Biological Laboratory [BBL]) with 5.0 g./l. of yeast extract (Difco) and 5 percent sterile defibrinated horse blood. The plates were sterile plastic 15 × 100 mm. petri plates. Incubation was carried out at 37°C. for 4 days under anaerobic conditions using the BBL Gas Pak system.
# The concentrations of test compounds in this initial test were prepared in dilutions ranging from 2000 mcg./ml. to 7.8 mcg./ml. The test procedure was carried out in the following manner. Five ml. of a twenty-fold concentration in tryptose broth (Difco) of each filter-sterilized test compound dilution was mixed in a series of flasks containing 90 ml. of melted trypticase soy agar with yeast extract. Five ml. of horse blood was then added per flask. The contents of these flasks were then used to prepare a series of blood agar plates in doubling decreasing dilutions ranging from 100 mcg./ml. to 0.39 mcg./ml.
# The treponema for inoculation of these plates were obtained by adding 3.0 ml. of sterile tryptose broth to the surface of a plate on which the treponema had been propagated. […]
# [4] = tested on: Salmonella dublin; assay: In vivo activity against Salmonella dublin in calves (Experiment 11)
# Method: The in vivo activity of compound 1 against Salmonella dublin was determined in the following manner.
# The calves for the in vivo experiment were purchased from a commercial source. Thirty-two calves were brought to the research facility where they were weighed individually and identified by ear tag. Each calf weighed about 90 pounds. The calves were then randomly divided by weight into eight groups of four calves each. Rectal swabs for Salmonella dublin and Escherichia coli isolation were obtained before treatment was started.
# Four groups of four calves each were treated with the test compound. Treatment was started 24 hours after challenge with Salmonella dublin and continued for six consecutive days. Treatment was accomplished by oral administration twice daily of gelatin capsules of test compound 1. During the treatment, rectal swabs were taken daily of each calf and bacterial isolations for salmonella species were run. At the end of the trial, rectal swabs for E. coli and salmonella species were taken again. The trials were terminated the day following the last treatment, at which time the calves were weighed and sacrificed.
# In the chart, column 1 records the dose rate/day/calf; column 2, the dose rate in mg./lb.; column 3, the survival ratio observed; and column 4, the occurrence of salmonella isolates obtained at necropsy.
# [5] = tested on: Treponema hyodysenteriae
# [6] = 50 g./ton continuous, total of both replicates
# [7] = 100 mg./day oral (1.25 mg./lb.)
# [8] = 100 g./ton in feed, all medicated pigs
compound,measurement,setting,value
"Cn1nc(-c2ncc([N+](=O)[O-])n2C)c(C#N)c1N [Compound 1, 5-Amino-1-methyl-3-(1-methyl-5-nitro-2-imidazolyl)pyrazole-4-carbonitrile]",MIC,[1],3.12 µg/mL
same,mortality,[2]; 50 g./ton continuous,prevented mortality
same,Mean Pig Wt.,"[2]; 50 g./ton continuous, Avg., day 0",30.0 Lbs.
same,Mean Pig Wt.,"[2]; 50 g./ton continuous, Avg., day 7",31.8 Lbs.
same,Mean Pig Wt.,"[2]; 50 g./ton continuous, Avg., day 14",33.5 Lbs.
same,Mean Pig Wt.,"[2]; 50 g./ton continuous, Avg., day 21",39.4 Lbs.
same,Mean Pig Wt.,"[2]; 50 g./ton continuous, Avg., day 28",45.5 Lbs.
same,Lesions at Necropsy,"[2]; 50 g./ton continuous, Rep. 1",2/6
same,No. Dead/No. in Grp.,"[2]; 50 g./ton continuous, Rep. 1",0/6
same,Mean Pig Wt.,"[2]; 50 g./ton continuous, Rep. 1, day 0",30.2 Lbs.
same,Mean Pig Wt.,"[2]; 50 g./ton continuous, Rep. 1, day 7",32.5 Lbs.
same,Mean Pig Wt.,"[2]; 50 g./ton continuous, Rep. 1, day 14",33.8 Lbs.
same,Mean Pig Wt.,"[2]; 50 g./ton continuous, Rep. 1, day 21",38.8 Lbs.
same,Mean Pig Wt.,"[2]; 50 g./ton continuous, Rep. 1, day 28",44.2 Lbs.
same,Lesions at Necropsy,"[2]; 50 g./ton continuous, Rep. 2",1/6
same,No. Dead/No. in Grp.,"[2]; 50 g./ton continuous, Rep. 2",0/6
same,Mean Pig Wt.,"[2]; 50 g./ton continuous, Rep. 2, day 0",29.7 Lbs.
same,Mean Pig Wt.,"[2]; 50 g./ton continuous, Rep. 2, day 7",31.0 Lbs.
same,Mean Pig Wt.,"[2]; 50 g./ton continuous, Rep. 2, day 14",33.2 Lbs.
same,Mean Pig Wt.,"[2]; 50 g./ton continuous, Rep. 2, day 21",40.0 Lbs.
same,Mean Pig Wt.,"[2]; 50 g./ton continuous, Rep. 2, day 28",46.7 Lbs.
same,improved weight gain over that of infected pigs,"[2]; 50 g./ton continuous, average",4.3 lbs./pig
same,Lesions at Necropsy,[2]; [6],3/12
same,No. Dead/No. in Grp.,[2]; [6],0/12
same,control of Salmonella choleraesuis in swine,[2]; compound 1 in the feed about 50 g./ton,effective in the control of Salmonella choleraesuis in swine
same,MIC,[3],0.097 µg/mL
same,Salmonella isolates at necropsy,[4]; [7],1/4
same,Survival Ratio,[4]; [7],4/4
same,Salmonella isolates at necropsy,[4]; 250 mg./day oral (2.5 mg./lb.),2/4
same,Survival Ratio,[4]; 250 mg./day oral (2.5 mg./lb.),4/4
same,Salmonella isolates at necropsy,[4]; 500 mg./day oral (5 mg./lb.),1/4
same,Survival Ratio,[4]; 500 mg./day oral (5 mg./lb.),4/4
same,Salmonella isolates at necropsy,[4]; 1000 mg./day oral (11 mg./lb.),0/4
same,Survival Ratio,[4]; 1000 mg./day oral (11 mg./lb.),4/4
same,salmonella isolates from organs of treated calves,[4]; at termination of the trial,reduced number of salmonella isolates
same,control of Salmonella dublin in calves,"[4]; compound 1 oral, about 100 to about 1000 mg./day/calf",effective in controlling Salmonella dublin in calves
same,blood and/or mucus in the colon at necropsy,[5]; 100 g./ton in feed,not found in the colon of any pig
same,Days with Blood and Mucus in Pen,"[5]; 100 g./ton in feed, Group 1",0
same,Days with Diarrhea in Pen,"[5]; 100 g./ton in feed, Group 1",0
same,Initial Wt. (at time of challenge),"[5]; 100 g./ton in feed, Group 1",35.3
same,Mortality (No. Died),"[5]; 100 g./ton in feed, Group 1",0
same,"Avg. Wt. of Pigs, Survivors","[5]; 100 g./ton in feed, Group 1, day 7",43.3
same,"Avg. Wt. of Pigs, Survivors","[5]; 100 g./ton in feed, Group 1, day 14",51.0
same,"Avg. Wt. of Pigs, Survivors","[5]; 100 g./ton in feed, Group 1, day 19",57.3
same,Avg. Gain (Survivors) From Day Of Challenge,"[5]; 100 g./ton in feed, Group 1, killed 19 days post-challenge",22.0 lb.
same,Days with Blood and Mucus in Pen,"[5]; 100 g./ton in feed, Group 2",0
same,Days with Diarrhea in Pen,"[5]; 100 g./ton in feed, Group 2",0
same,Initial Wt. (at time of challenge),"[5]; 100 g./ton in feed, Group 2",35.3
same,Mortality (No. Died),"[5]; 100 g./ton in feed, Group 2",0
same,"Avg. Wt. of Pigs, Survivors","[5]; 100 g./ton in feed, Group 2, day 7",42.1
same,"Avg. Wt. of Pigs, Survivors","[5]; 100 g./ton in feed, Group 2, day 14",50.0
same,"Avg. Wt. of Pigs, Survivors","[5]; 100 g./ton in feed, Group 2, day 21",59.7
same,"Avg. Wt. of Pigs, Survivors","[5]; 100 g./ton in feed, Group 2, day 28",71.2
same,Avg. Gain (Survivors) From Day Of Challenge,"[5]; 100 g./ton in feed, Group 2, killed 28 days post-challenge",35.9 lb.
same,deaths during the trial,[5]; [8],None of the pigs receiving the test compound died
same,diarrhea,[5]; [8],not detected
same,mucus and blood in feces,"[5]; 100 g./ton in feed, whole trial",not observed at any time during the trial
same,control of induced swine dysentery,"[5]; 100 g./ton in feed, overall conclusion",highly effective
same,control of Treponema hyodysenteriae in swine,[5]; compound 1 in the feed about 100 g./ton,effective in the control of Treponema hyodysenteriae in swine
same,slight areas of hemorrhage in the colon and/or stomach,"[5]; pig, in vivo",seen in most of the pigs
same,recurrence of swine dysentery,"[5]; replicate 2, unmedicated ration day 17 until day 28",not observed

# — patent US3980794A, “Method for promoting growth of poultry with 3-(5-nitro-2-imidazolyl)pyrazoles” (Eli Lilly and Company, priority 1975, dated 1976)
